The results in this text go back to patent US9249161B2, “Bromodomain inhibitors and uses thereof” (Constellation Pharmaceuticals, Inc., priority 2010, dated 2016).

The target in one assay is T1, BRD4(BD1) (Homo sapiens, UniProt O60885).
T1 construct: His; made in house
Nature of the assay: BRD4 Alphalisa binding assay.
Conditions: not given
As to the method:
IC50 Measurements for Inhibitors Using BRD4 Alphalisa Binding Assay
His/[…] epitope tagged BRD4 BD142-168 was cloned, expressed and purified to homogeneity. BRD4 binding and inhibition was assessed by monitoring the engagement of biotinylated H4-tetraacetyl peptide (Millipore #12-379) with the target using the AlphaLisa technology (Perkin-Elmer). Specifically, in a 384 well ProxiPlate BRD4(BD1) (30 nM final) was combined with peptide (200 nM final) in 40 mM HEPES (pH 7.0), 40 mM NaCl, 1 mM DTT, 0.01% (w/v) BSA, and 0.008% (w/v) Brij-35 either in the presence of DMSO (final 1.2% DMSO) or compound dilution series in DMSO. After 20 minute incubation at room temperature Alpha streptavidin donor beads and AlphaLisa anti-Flag acceptor beads were added to a final concentration of 10 ug/mL each. After three hours equilibration plates were read on an Envision instrument and IC50s calculated using a four parameter non-linear curve fit.
As to `Cc1sc2c(c1C)C(c1ccc(Cl)cc1)=NC1(CC1)c1nnc(C)n1-2` [Compound 214, 4′-(4-Chlorophenyl)-2′,3′,9′-trimethylspiro[cyclopropane-1,6′-thieno[3,2-f][1,2,4]triazolo[4,3-a][1,4]diazepine]], the half-inhibitory concentration (IC50) – broadly, the concentration that inhibits the measured activity by half – was less than 500 nM.

Still in this assay, the particulars now being: BRD4(BD1) 30 nM, biotinylated H4-tetraacetyl peptide 200 nM; read-out: BRD4 Alphascreen IC50.
As to `Cc1sc2c(c1C)C(c1ccc(Cl)cc1)=NC1(CC1C)c1nnc(C)n1-2` (racemic) [Compound 215, 4′-(4-chlorophenyl)-2,2′,3′,9′-tetramethylspiro[cyclopropane-1,6′-thieno[3,2-f][1,2,4]triazolo[4,3-a][1,4]diazepine]], the concentration for half-maximal inhibition (IC50) was less than 500 nM. Consider `COC[C@@H]1C[C@]12N=C(c1ccc(Cl)cc1)c1c(sc(C)c1C)-n1c(C)nnc12` [Compound 202, (1S,2R)-4′-(4-chlorophenyl)-2-(methoxymethyl)-2′,3′,9′-trimethylspiro[cyclopropane-1,6′-thieno[3,2-f][1,2,4]triazolo[4,3-a][1,4]diazepine]], for which the IC50 is less than 500 nM. The same measure, in the same setting: for `Cc1sc2c(c1C)C(c1ccc(Cl)cc1)=N[C@]1(C[C@H]1CO)c1nnc(C)n1-2` [Compound 203, ((1S,2R)-4′-(4-chlorophenyl)-2′,3′,9′-trimethylspiro[cyclopropane-1,6′-thieno[3,2-f][1,2,4]triazolo[4,3-a][1,4]diazepin]-2-yl)methanol] the value was less than 500 nM.

For `CCNC(=O)[C@@H]1C[C@]12N=C(c1ccc(Cl)cc1)c1c(sc(C)c1C)-n1c(C)nnc12` [Compound 204, (1S,2R)-4′-(4-chlorophenyl)-N-ethyl-2′,3′,9′-trimethylspiro[cyclopropane-1,6′-thieno[3,2-f][1,2,4]triazolo[4,3-a][1,4]diazepine]-2-carboxamide], the IC50 was greater than 1000 nM. The same measure, in the same setting: the figure for `Cc1sc2c(c1C)C(c1ccc(Cl)cc1)=N[C@]1(C[C@H]1C(N)=O)c1nnc(C)n1-2` [Compound 205, (1S,2R)-4′-(4-Chlorophenyl)-2′,3′,9′-trimethylspiro[cyclo-propane-1,6′-thieno[3,2-f][1,2,4]triazolo[4,3-a][1,4]diazepine]-2-carboxamide] is 500 to 1000 nM; for `Cc1sc2c(c1C)C(c1ccc(Cl)cc1)=N[C@]1(C[C@H]1CN)c1nnc(C)n1-2` [Compound 206, ((1S,2S)-4′-(4-Chlorophenyl)-2′,3′,9′-trimethylspiro[cyclo-propane-1,6′-thieno[3,2-f][1,2,4]triazolo[4,3-a][1,4]diazepin]-2-yl)methanamine] it is less than 500 nM.

As for `CC(=O)NC[C@@H]1C[C@]12N=C(c1ccc(Cl)cc1)c1c(sc(C)c1C)-n1c(C)nnc12` [Compound 207, N-(((1S,2S)-4′-(4-Chlorophenyl)-2′,3′,9′-trimethylspiro[cyclopropane-1,6′-thieno[3,2-f][1,2,4]triazolo[4,3-a][1,4]diazepin]-2-yl)methyl)acetamide], the IC50 was less than 500 nM.

In the case of `CCNC[C@@H]1C[C@]12N=C(c1ccc(Cl)cc1)c1c(sc(C)c1C)-n1c(C)nnc12` [Compound 208, N-(((1S,2S)-4′-(4-Chlorophenyl)-2′,3′,9′-trimethylspiro[cyclopropane-1,6′-thieno[3,2-f][1,2,4]triazolo[4,3-a][1,4]diazepin]-2-yl)methyl)ethanamine], the IC50 is less than 500 nM.

Take `COC[C@H]1C[C@@]12N=C(c1ccc(Cl)cc1)c1c(sc(C)c1C)-n1c(C)nnc12` [Compound 209, (1R,2S)-4′-(4-chlorophenyl)-2-(methoxymethyl)-2′,3′,9′-trimethylspiro[cyclopropane-1,6′-thieno[3,2-f][1,2,4]triazolo[4,3-a][1,4]diazepine]]: the IC50 was less than 500 nM. The same measure, in the same setting: for `Cc1sc2c(c1C)C(c1ccc(Cl)cc1)=N[C@@]1(C[C@@H]1CO)c1nnc(C)n1-2` [Compound 210, ((1R,2S)-4′-(4-Chlorophenyl)-2′,3′,9′-trimethylspiro[cyclo-propane-1,6′-thieno[3,2-f][1,2,4]triazolo[4,3-a][1,4]diazepin]-2-yl)methanol] the value was less than 500 nM.

With `CCNC(=O)[C@H]1C[C@@]12N=C(c1ccc(Cl)cc1)c1c(sc(C)c1C)-n1c(C)nnc12` [Compound 211, (1R,2S)-4′-(4-chlorophenyl)-N-ethyl-2′,3′,9′-trimethylspiro[cyclopropane-1,6′-thieno[3,2-f][1,2,4]triazolo[4,3-a][1,4]diazepine]-2-carboxamide], the IC50 is greater than 1000 nM. Turning to `CCNC(=O)[C@@H]1C[C@@]12N=C(c1ccc(Cl)cc1)c1c(sc(C)c1C)-n1c(C)nnc12` [Compound 212, (1R,2R)-4′-(4-Chlorophenyl)-N-ethyl-2′,3′,9′-trimethylspiro-[cyclopropane-1,6′-thieno[3,2-f][1,2,4]triazolo[4,3-a][1,4]diazepine]-2-carboxamide], the IC50 was greater than 1000 nM. Same read-out and setting: for `Cc1nsc2c1C(c1ccc(Cl)cc1)=NC1(CC1)c1nnc(C)n1-2` [Compound 213, 4′-(4-chlorophenyl)-3′,9′-dimethylspiro[cyclopropane-1,6′-isothiazolo[4,5-f][1,2,4]triazolo[4,3-a][1,4]diazepine]] the value was greater than 1000 nM; for `Cc1nnc2n1-c1ccccc1C(c1ccc(Cl)cc1)=NC21CC1` [Compound 216, 6-(4-chlorophenyl)-1-methylspiro[benzo[f][1,2,4]triazolo[4,3-a][1,4]diazepine-4,1′-cyclopropane]], less than 500 nM. The same measure, in the same setting: the figure for `Cc1sc2c(c1C)C(c1ccc(Cl)cc1)=NC1(CC1)c1nncn1-2` [Compound 217, 4′-(4-Chlorophenyl)-2′,3′-dimethylspiro[cyclopropane-1,6′-thieno[3,2-f][1,2,4]triazolo[4,3-a][1,4]diazepine]] is greater than 1000 nM. As to `Cc1sc2c(c1C)C(c1ccc(Cl)cc1)=N[C@@]1(C[C@@H]1C)C(=O)N2` [Compound 218, (1R,2S)-5′-(4-chlorophenyl)-2,6′,7′-trimethylspiro[cyclopropane-1,3′-thieno[2,3-e][1,4]diazepin]-2′(1′H)-one], the IC50 is greater than 1000 nM. For `Cc1sc2c(c1C)C(c1ccc(Cl)cc1)=N[C@@]1(C[C@@H]1C)c1nnc(C)n1-2` [Compound 219, (1R,2S)-4′-(4-chlorophenyl)-2,2′,3′,9′-tetramethylspiro-[cyclopropane-1,6′-thieno[3,2-f][1,2,4]triazolo[4,3-a][1,4]diazepine]], the IC50 is less than 500 nM. On the same count and under the same terms, for `Cc1sc2c(c1C)C(c1ccc(Cl)cc1)=N[C@]1(C[C@H]1C)c1nnc(C)n1-2` [Compound 220, (1S,2R)-4′-(4-chlorophenyl)-2,2′,3′,9′-tetramethyl-spiro[cyclopropane-1,6′-thieno[3,2-f][1,2,4]triazolo[4,3-a][1,4]diazepine]] the value was less than 500 nM. The same measure, in the same setting: the figure for `Cc1sc2c(c1C)C(c1ccc(N)cc1)=N[C@]1(C[C@H]1C)c1nnc(C)n1-2` [Compound 221, 4-((1S,2R)-2,2′,3′,9′-tetramethylspiro[cyclopropane-1,6′-thieno[3,2-f][1,2,4]triazolo[4,3-a][1,4]diazepin]-4′-yl)aniline] is less than 500 nM; for `Cc1sc2c(c1C)C(c1ccc(Cl)cc1)=N[C@]1(C[C@H]1C)c1n[nH]c(=O)n1-2` [Compound 222, (1S,2R)-4′-(4-chlorophenyl)-2,2′,3′-trimethylspiro[cyclopropane-1,6′-thieno[3,2-f][1,2,4]triazolo[4,3-a][1,4]diazepin]-9′(8′H)-one 2,2,2-trifluoroacetic acid] it is greater than 1000 nM. As for `Cc1sc2c(c1C)C(c1ccc(Cl)cc1)=NC1(CCC1)c1nnc(C)n1-2` [Compound 223, 4′-(4-chlorophenyl)-2′,3′,9′-trimethylspiro[cyclobutane-1,6′-thieno[3,2-f][1,2,4]triazolo[4,3-a][1,4]diazepine]], the IC50 was less than 500 nM. For `Cc1sc2c(c1C)C(c1ccc(Cl)cc1)=NC1(CNC1)c1nnc(C)n1-2` [Compound 224, 4′-(4-chlorophenyl)-2′,3′,9′-trimethylspiro[azetidine-3,6′-thieno[3,2-f][1,2,4]triazolo[4,3-a][1,4]diazepine]], the IC50 is greater than 1000 nM. Same read-out and setting: the figure for `Cc1sc2c(c1C)C(c1ccc(Cl)cc1)=NC1(COC1)c1nnc(C)n1-2` [Compound 226, 4′-(4-Chlorophenyl)-2′,3′,9′-trimethylspiro[oxetane-3,6′-thieno[3,2-f][1,2,4]triazolo[4,3-a][1,4]diazepine]] is less than 500 nM; for `Cc1noc2c1-c1ccc(Cl)cc1C(c1ccc(F)cc1)=NC21CC1` [Compound 250, 8-Chloro-6-(4-fluorophenyl)-1-methylspiro[benzo[c]isoxazolo[4,5-e]azepine-4,1′-cyclopropane]] it is greater than 1000 nM; for `Cc1noc2c1-c1ccc(-c3ccc(N)nc3)cc1C(c1ccc(F)cc1)=NC21CC1` [Compound 251, 5-(6-(4-Fluorophenyl)-1-methylspiro[benzo[c]isoxazolo[4,5-e]azepine-4,1′-cyclopropan]-8-yl)pyridin-2-amine] it is less than 500 nM. For `Cc1noc2c1-c1cn(C)nc1C(c1ccc(Cl)cc1)=NC2` [Compound 265, 6-(4-chlorophenyl)-1,8-dimethyl-4,8-dihydroisoxazolo[5,4-c]pyrazolo[4,3-e]azepine], the IC50 was greater than 1000 nM.
